Experiments:
Assay type in all cases: in vivo
[1] = system: foxtail, giant (giant foxtail, Setaria faberii); experiment: Test A pre-/postemergence: foxtail, giant
Outline: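 Soil medium was loam blended with sand; treatments pre- and postemergence were applied concurrently, postemergence at one- to two-leaf stage. Approximately ten days in greenhouse preceded visual comparison with untreated controls, scored 0 (no effect) to 100 (complete control).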

[2] = system: morningglory (Ipomoea coccinea); experiment: Test C pre-/postemergence: morningglory
Outline: (§1)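 Preemergence on seeds in loam/sand, postemergence on 2–18 cm (1–4-leaf) plants in peat-based medium; compounds in non-phytotoxic solvent with surfactant. After 13–15 days in greenhouse, visual rating versus controls, 0 (no effect) to 100 (complete control).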

[3] = system: nightshade (eastern black nightshade, Solanum ptycanthum); experiment: Test C pre-/postemergence: nightshade; details: Preemergence
Outline: as §1

[4] = system: common (oilseed) sunflower (Helianthus annuus); experiment: Test C pre-/postemergence: sunflower; details: Preemergence
Outline: as §1

[5] = system: chickweed (common chickweed, Stellaria media); experiment: Test C postemergence: chickweed
Outline: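 Visual 0–100 injury score vs untreated controls (0 none, 100 complete control), taken 13–15 d after treatment. Postemergence spray on potted plants, 2–18 cm, 1–4 leaves; greenhouse.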

[6] = system: foxtail, green (green foxtail, Setaria viridis); experiment: Test D pre-/postemergence: foxtail, green
Outline: (§2)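 Pre- and postemergence herbicide screen. Soil for pre: silt loam; post medium: peat moss, vermiculite, wetting agent, starter nutrients. Plant stage at post: 1- to 4-leaf. Readout: visual % control, 14–21 days.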

[7] = system: oilseed rape (Brassica napus); experiment: Test D pre-/postemergence: oilseed rape
Outline: as §2

[8] = system: oat, wild (wild oat, Avena fatua); experiment: Test D pre-/postemergence: oat, wild
Outline: as §2

[9] = Postemergence, 125 g ai/ha, 0 to 100 scale, 0 is no effect, 100 is complete control
[10] = Preemergence, 125 g ai/ha, 0 to 100 scale where 0 is no effect and 100 is complete control
[11] = Preemergence, 500 g ai/ha, 0 to 100 scale (0 no effect, 100 complete control)
[12] = Postemergence, 31 g ai/ha, scale 0 to 100 (0 no effect, 100 complete control)
[13] = Postemergence, 62 g ai/ha, scale 0 to 100 (0 no effect, 100 complete control)
[14] = Postemergence, 125 g ai/ha, scale 0 to 100, 0 no effect, 100 complete control
[15] = Preemergence, 62 g ai/ha, scale of 0 to 100, 0 is no effect, 100 is complete control
[16] = Preemergence, 125 g ai/ha, scale 0 to 100, 0 no effect, 100 complete control
[17] = Preemergence, 250 g ai/ha, scale 0 to 100, 0 no effect, 100 complete control
[18] = 31 g ai/ha, scale of 0 to 100, 0 is no effect, 100 is complete control
[19] = 62 g ai/ha, scale of 0 to 100, 0 is no effect, 100 is complete control
[20] = 125 g ai/ha, scale 0 to 100, 0 no effect, 100 complete control
[21] = 250 g ai/ha, scale 0 to 100, 0 no effect, 100 complete control
[22] = 31 g ai/ha, scale 0 to 100 (0 no effect, 100 complete control)
[23] = 62 g ai/ha, scale 0 to 100 (0 no effect, 100 complete control)
[24] = Postemergence, 8 g ai/ha, scale 0 to 100
[25] = Postemergence, 16 g ai/ha, scale 0 to 100
[26] = Postemergence, 250 g ai/ha, scale 0 to 100 (0 no effect, 100 complete control)
[27] = 31 g ai/ha, scale 0 (no effect) to 100 (complete control)
[28] = Preemergence, 16 g ai/ha, scale 0 to 100 (0 no effect, 100 complete control)
[29] = Preemergence, 31 g ai/ha, scale 0 to 100 (0 no effect, 100 complete control)
[30] = Preemergence, 62 g ai/ha, scale 0 to 100
[31] = Preemergence, 125 g ai/ha, scale 0 to 100
[32] = Preemergence, 250 g ai/ha, scale 0 to 100

## Cc1nn(-c2ccc(F)c(F)c2)nc1Oc1ccnc(C(F)(F)F)c1 [Compound 145]
[1]; [9]
  Foxtail, Giant plant response rating: 90
[1]; Postemergence, 500 g ai/ha, visual rating on 0 to 100 scale (0 no effect, 100 complete control), approximately ten days
  Foxtail, Giant plant response rating: 100
[1]; [10]
  Plant response rating, Foxtail, Giant: 100
[1]; [11]
  Plant response rating, Foxtail, Giant: 100
[2]; [12]
  Plant response rating, Morningglory: 90
[2]; [13]
  Plant response rating, Morningglory: 90
[2]; [14]
  Plant response rating, Morningglory: 95
[2]; Postemergence, 250 g ai/ha, scale 0 to 100
  Plant response rating, Morningglory: 98
[2]; Preemergence, 31 g ai/ha, scale of 0 to 100, 0 is no effect, 100 is complete control
  Plant response rating, Morningglory: 15
[2]; [15]
  Plant response rating, Morningglory: 20
[2]; [16]
  Plant response rating, Morningglory: 70
[2]; [17]
  Plant response rating, Morningglory: 85
[3]; [18]
  Plant response rating, Nightshade: 35
[3]; [19]
  Plant response rating, Nightshade: 80
[3]; [20]
  Plant response rating, Nightshade: 85
[3]; [21]
  Plant response rating, Nightshade: 90
[4]; [18]
  Plant response rating, Sunflower: 0
[4]; [19]
  Plant response rating, Sunflower: 5
[4]; [20]
  Plant response rating, Sunflower: 20
[4]; [21]
  Plant response rating, Sunflower: 25
[5]; [22]
  Plant response rating, Chickweed: 75
[5]; [23]
  Plant response rating, Chickweed: 85
[5]; [20]
  Plant response rating, Chickweed: 98
[5]; 250 g ai/ha, scale 0 to 100
  Plant response rating, Chickweed: 100
[6]; [12]
  Plant response rating: Foxtail, Green: 60
[6]; [13]
  Plant response rating: Foxtail, Green: 100
[6]; [14]
  Plant response rating: Foxtail, Green: 100
[6]; [24]
  Plant response rating, Foxtail, Green: 5
[6]; [25]
  Plant response rating, Foxtail, Green: 5
[7]; [12]
  Plant response rating: Oilseed Rape: 50
[7]; [13]
  Plant response rating: Oilseed Rape: 70
[7]; [14]
  Plant response rating: Oilseed Rape: 100
[7]; [24]
  Plant response rating, Oilseed Rape: 0
[7]; [25]
  Plant response rating, Oilseed Rape: 50
[8]; [12]
  Plant response rating: Oat, Wild: 20
[8]; [13]
  Plant response rating: Oat, Wild: 30
[8]; [14]
  Plant response rating: Oat, Wild: 35
[8]; [24]
  Plant response rating, Oat, Wild: 10
[8]; [25]
  Plant response rating, Oat, Wild: 10

## CCOc1nn(-c2ccc(F)cc2)nc1Cc1ccnc(C(F)F)c1 [Compound 195]
[1]; [9]
  Plant response rating, Foxtail, Giant: 90
[1]; Postemergence, 500 g ai/ha, 0 to 100 scale, 0 is no effect, 100 is complete control
  Foxtail, Giant plant response rating: 90
[1]; [10]
  Plant response rating, Foxtail, Giant: 100
[1]; [11]
  Plant response rating, Foxtail, Giant: 100
[2]; [12]
  Plant response rating, Morningglory: 65
[2]; [13]
  Plant response rating, Morningglory: 90
[2]; [14]
  Plant response rating, Morningglory: 90
[2]; [26]
  Plant response rating, Morningglory: 95
[2]; Preemergence, 31 g ai/ha, scale 0 (no effect) to 100 (complete control)
  Plant response rating, Morningglory: 30
[2]; [15]
  Plant response rating, Morningglory: 50
[2]; [16]
  Plant response rating, Morningglory: 75
[2]; [17]
  Plant response rating, Morningglory: 90
[3]; [27]
  Plant response rating, Nightshade: 60
[3]; [19]
  Plant response rating, Nightshade: 85
[3]; [20]
  Plant response rating, Nightshade: 95
[3]; [21]
  Plant response rating, Nightshade: 98
[4]; [27]
  Plant response rating, Sunflower: 0
[4]; [19]
  Plant response rating, Sunflower: 15
[4]; [20]
  Plant response rating, Sunflower: 15
[4]; [21]
  Plant response rating, Sunflower: 20
[5]; [22]
  Plant response rating, Chickweed: 95
[5]; [23]
  Plant response rating, Chickweed: 95
[5]; [20]
  Plant response rating, Chickweed: 98
[5]; 250 g ai/ha, scale 0 to 100
  Plant response rating, Chickweed: 98
[6]; [12]
  Plant response rating: Foxtail, Green: 50
[6]; [13]
  Plant response rating: Foxtail, Green: 75
[6]; [14]
  Plant response rating: Foxtail, Green: 100
[6]; [26]
  Plant response rating: Foxtail, Green: 100
[6]; [25]
  Plant response rating, Foxtail, Green: 30
[6]; [28]
  Plant response rating, Foxtail, Green: 15
[6]; [29]
  Plant response rating, Foxtail, Green: 90
[6]; [30]
  Plant response rating, Foxtail, Green: 100
[6]; [31]
  Plant response rating, Foxtail, Green: 100
[6]; [32]
  Plant response rating, Foxtail, Green: 100
[7]; [12]
  Plant response rating: Oilseed Rape: 85
[7]; [13]
  Plant response rating: Oilseed Rape: 95
[7]; [14]
  Plant response rating: Oilseed Rape: 100
[7]; [26]
  Plant response rating: Oilseed Rape: 100
[7]; [25]
  Plant response rating, Oilseed Rape: 70
[7]; [28]
  Plant response rating, Oilseed Rape: 0
[7]; [29]
  Plant response rating, Oilseed Rape: 0
[7]; [30]
  Plant response rating, Oilseed Rape: 0
[7]; [31]
  Plant response rating, Oilseed Rape: 10
[7]; [32]
  Plant response rating, Oilseed Rape: 20
[8]; [12]
  Plant response rating: Oat, Wild: 20
[8]; [13]
  Plant response rating: Oat, Wild: 25
[8]; [14]
  Plant response rating: Oat, Wild: 35
[8]; [26]
  Plant response rating: Oat, Wild: 45
[8]; [25]
  Plant response rating, Oat, Wild: 10
[8]; [28]
  Plant response rating, Oat, Wild: 0
[8]; [29]
  Plant response rating, Oat, Wild: 0
[8]; [30]
  Plant response rating, Oat, Wild: 0
[8]; [31]
  Plant response rating, Oat, Wild: 75
[8]; [32]
  Plant response rating, Oat, Wild: 75

Reference: patent publication US9302999B2, “Substituted triazoles as herbicides” (E. I. DU PONT DE NEMOURS AND COMPANY, priority 2012, dated 2016)
